Experimental data published in patent US8071760B2, “Boron-containing porphyrin compounds and their uses” (Board of Supervisors of Louisiana State University and …, priority 2005, dated 2011).
“Also recorded” adds a separate entry of the source. Marks after values point to notes of the source that are not given here.

Assays:
[1] = solubility in solvents and water; type: physicochemical
From the text: Compound 18 was converted to the water-soluble TBP Compound 19 with tert-butylammonium fluoride in THF, followed by cation exchange.

[2] = tested on: human glioblastoma T98G cells; assay: Concentration-dependent cellular uptake; type: cell-based; settings: for dependence of uptake on concentration: up to 200 μM
Protocol: Human glioblastoma T98G cells and cervical carcinoma HEp2 cells were obtained from ATCC. Both cell lines were maintained in 50% α-MEM/advanced MEM, supplemented with 5% fetal bovine serum. Phosphate buffered saline (PBS), fetal bovine serum, and trypsin were purchased from Gibco; Cyquant reagent and Lysosensor were purchased from Molecular Probes, and Triton X-100 was purchased from Calbiochem. Microscopy was performed on a Zeiss Axiovert 200M inverted fluorescence microscope fitted with standard Texas Red and FITC filter sets (Chroma Technology Corp.). Images were acquired with a Zeiss Axiocam MRM CCD camera fitted to the microscope, and were pseudo-colored with Adobe Photoshop® CS version 8.0. […] All medium solutions were filter-sterilized ([…] pore size) prior to use. All data obtained in the FLUOstar plate reader was analyzed using Prism 3.0 graphing software.
Human T98G cells were sub-cultured on 96-well plates at 10,000 cells/100 μL α-MEM/advanced medium per well, and were incubated for 48 h. […] A standard curve for different cell numbers was obtained by placing 100,000, 80,000, 60,000, 40,000, 20,000, 10,000, and 0 cells in the wells, followed by incubation for 3 h. A standard graph was prepared from the wells with known cell numbers. Unknown cell numbers from the experiments were determined by first adding 100 μL/well of 5 μM stock solution of Cyquant reagent in PBS, and then reading the plate on a FLUOstar plate reader using 480 nm excitation and 520 emission filters. The same procedure was followed for determining the concentration-dependent cellular uptake of porphyrin 20, but using 570 nm excitation and 650 nm emission filters.

[3] = tested on: BALB/c mice; assay: Animal toxicity (clinical signs, serum chemistry, histopathology); type: in vivo; settings: for AP / Albumin / BUN / Bilirubin / Globulin / Glucose / Total Prot. / ALT / AST: serum, blood 48 h after administration, group mean; for ALT / AST: in U/L (unit assumed)
Protocol: Twelve groups of two BALB/c mice each, 4-6 weeks of age and weighing 12-24 g (mean=19 g), were used for toxicity studies. There were 8 female and 16 male mice. Mice in groups 1, 3, 5, 7, and 9 were administered TBP 19 once via i.p. injection, at increasing dosages: group 1 (20 mg/kg of a 2 mg/ml solution), group 3 (40 mg/kg of a 2 mg/ml solution), group 5 (80 mg/kg of a 4 mg/ml solution), group 7 (120 mg/kg of a 4 mg/ml solution), and group 9 (160 mg/kg of a 4 mg/ml solution). Mice in groups 2, 4, 6, 8, and 10 were administered porphyrin 20 once via i.p. injection at increasing dosages: group 2 (20 mg/kg of a 2 mg/ml solution), group 4 (40 mg/kg of a 2 mg/ml solution), group 6 (80 mg/kg of a 4 mg/ml solution), group 8 (120 mg/kg of a 4 mg/ml solution), and group 10 (160 mg/kg of a 4 mg/ml solution). Two groups of mice served as vehicle controls. Mice in group 11 received sterile 4% Cremophor EL (Fluka) in PBS and served as controls for mice receiving 20, 40, and 80 mg/kg compound; while mice in group 12 received 6% Cremophor EL and served as controls for mice receiving 120 and 160 mg/kg compound.
For each compound, groups were dosed sequentially and each group was evaluated daily for signs of toxicity, including hunched posture, rough hair coat, and decreased responsiveness. Mice were anesthetized with CO2 48 h after compound administration, and blood was collected by cardiocentesis for clinical chemistry evaluation. Serum chemistry was analyzed, including glucose, aspartate aminotransferase (AST), alanine aminotransferase (ALT), alkaline phosphatase (AP), bilirubin, total protein (TP), albumin, globulin, and blood urea nitrogen (BUN). The mice were exsanguinated and necropsies were performed. Tissues, including lung, kidney, thymus, heart, Harderian gland, spleen, stomach, small intestine and colon were fixed in 10% neutral buffered formalin. The fixed tissues were processed and examined by a board-certified pathologist.

[4] = tested on: human glioblastoma T98G cells; assay: Time-dependent cellular uptake; type: cell-based; settings: 10 μM, FIG. 12
Protocol: (§1) Human glioblastoma T98G cells and cervical carcinoma HEp2 cells were obtained from ATCC. Both cell lines were maintained in 50% α-MEM/advanced MEM, supplemented with 5% fetal bovine serum. Phosphate buffered saline (PBS), fetal bovine serum, and trypsin were purchased from Gibco; Cyquant reagent and Lysosensor were purchased from Molecular Probes, and Triton X-100 was purchased from Calbiochem. Microscopy was performed on a Zeiss Axiovert 200M inverted fluorescence microscope fitted with standard Texas Red and FITC filter sets (Chroma Technology Corp.). Images were acquired with a Zeiss Axiocam MRM CCD camera fitted to the microscope, and were pseudo-colored with Adobe Photoshop® CS version 8.0. Compounds 19 and 20 were dissolved in DMSO (Sigma-Aldrich) prior to being diluted into cell medium so that the final DMSO concentration never exceeded 1%. All medium solutions were filter-sterilized ([…] pore size) prior to use. All data obtained in the FLUOstar plate reader was analyzed using Prism 3.0 graphing software.
Human T98G cells were sub-cultured and incubated for 48 h as otherwise described above. A filter-sterilized, 10 μM stock solution of TBP 19 in 1% DMSO/medium was added, and the cells were incubated for 24, 16, 8, 4, 2, 1, 0.5 and 0 h. […] Known and unknown concentrations of TBP 19 were determined as described above for the concentration-dependent uptake. […]

[5] = tested on: Human HEp2 cells; assay: Intracellular localization (fluorescence microscopy, Lysosensor co-localization); type: cell-based; settings: 50 μM, 24 h incubation, fluorescence pattern and overlay with Lysosensor; listed as TBP 19
Protocol: as §1
Human HEp2 cells were sub-cultured on Lab-Tek II chamber cover slips with α-MEM/advanced medium for 48 h. TBP 5 was added to each chamber to reach a final concentration of 50 μM. […] New medium containing 50 mM HEPES pH 7.4 was added, and the cells were examined immediately by fluorescence microscopy. […]

[6] = T98G cells, 3 h exposure, FIG. 11
[7] = BALB/c mice, 20 mg/kg single i.p. injection
[8] = BALB/c mice, 40 mg/kg single i.p. injection
[9] = BALB/c mice, 80 mg/kg single i.p. injection
[10] = BALB/c mice, 120 mg/kg single i.p. injection
[11] = BALB/c mice, 160 mg/kg single i.p. injection

5,10,15,20-Tetra(4′-cobaltacarborane 4-hydroxyphenyl)porphyrin [Compound 13]
solubility in methanol [1]: soluble

5,10,15,20-Tetra(4′-cobaltacarboranepyridyl)porphyrin [Compound 5]
solubility in polar organic solvents ([1]; acetone, ethyl acetate, acetonitrile, DMF, and DMSO): highly soluble
solubility in methanol [1]: not

5,10,15,20-Tetra[4-(nido-carboranyl)phenyl-tetrabenzoporphyrin [Compound 19]
concentration accumulated within cells, higher than porphyrin 20 [2, 6]: approximately 30%
dependence of uptake on concentration [2, 6]: increased with increasing concentration, in an almost linear fashion
uptake in T98G cells in comparison with carboranylporphyrin 20 ([2]; in vitro, in words): significantly higher uptake
solubility in polar organic solvents ([1]; such as acetone, methanol and DMSO): highly soluble
solubility in water ([1]; water): slightly soluble
toxicity to BALB/c mice ([3]; 160 mg/kg, single i.p. injection, 4 mg/mL, listed as TBP 19): non-toxicity; also recorded: non-toxic
signs of toxicity ([3]; BALB/c mice, 20-160 mg/kg single i.p. injection, daily evaluation): No signs of toxicity
serum chemistry changes attributable to compound ([3]; BALB/c mice, i.p., maximum 160 mg/kg): No serum chemistry changes were observed
clinical, biochemical, or histopathological effects attributable to administration ([3]; BALB/c mice, single i.p. injection up to 160 mg/kg): No clinical, biochemical, or histopathological effects were observed
toxicity compared with other negatively charged carboranyl-containing porphyrins (BOPP, MnBOPP, BTPP, NiNTCP-H, ZnDPE, NiDPE) ([3]; mice, preliminary results): significantly less toxic
AP [3, 7]: 189.5^a,c
Albumin [3, 7]: 2.85 g/dL
BUN [3, 7]: 28 mg/dL
Bilirubin [3, 7]: 0.15 mg/dL
Globulin [3, 7]: 1.8^a
Glucose [3, 7]: 153.5^a
Total Prot. [3, 7]: 4.65 g/dL
ALT [3, 7]: 151.5
AST [3, 7]: 177.5
AP [3, 8]: 201.0^b,c
Albumin [3, 8]: 2.8 g/dL
BUN [3, 8]: 27 mg/dL
Bilirubin [3, 8]: 0.2 mg/dL
Globulin [3, 8]: 1.9^a
Glucose [3, 8]: 219.5^c
Total Prot. [3, 8]: 4.7 g/dL
ALT [3, 8]: 96.5
AST [3, 8]: 455.5
AP [3, 9]: 138.0^a
Albumin [3, 9]: 2.75 g/dL
BUN [3, 9]: 25.5 mg/dL
Bilirubin [3, 9]: 0.2 mg/dL
Globulin [3, 9]: 2.35^b
Glucose [3, 9]: 229.5^c
Total Prot. [3, 9]: 5.1 g/dL
ALT [3, 9]: 120.0
AST [3, 9]: 454.5
AP [3, 10]: 161.0^a
Albumin [3, 10]: 2.75^a
BUN [3, 10]: 15.5^a,b
Bilirubin [3, 10]: 0.2 mg/dL
Globulin [3, 10]: 2.35^a
Total Prot. [3, 10]: 5.1^a
ALT [3, 10]: 29.0
AST [3, 10]: 73.0
Glucose ([3]; BALB/c mice, 120 mg/kg single i.p. injection, in mg/dL (unit assumed)): 224.5
AP [3, 11]: 223.5^b
BUN [3, 11]: 22.5^b,c
Bilirubin [3, 11]: 0.25 mg/dL
Globulin [3, 11]: 1.95^b
Total Prot. [3, 11]: 4.35^b
Albumin ([3]; BALB/c mice, 160 mg/kg single i.p. injection, 160 mg/kg): lower than for other mice
ALT [3, 11]: 206.0
AST [3, 11]: 498.0
Glucose ([3]; BALB/c mice, 160 mg/kg single i.p. injection, in mg/dL (unit assumed)): 172.0
Albumin ([3]; BALB/c mice, 160 mg/kg single i.p. injection, listed as TBP 5, 160 mg/kg): 2.4^b
amount within T98G cells relative to Compound 20 ([4]; after 24 h): approximately 3 times
time-dependent uptake compared with porphyrin 20 ([4]; all times 0-24 h): taken up faster and to a greater extent
site of intracellular localization [5]: localization in the cellular lysosomes

5,10,15,20-Tetra[4-(o-carboranyl)phenyl-tetrabenzoporphyrin [Compound 18]
solubility in organic solvents ([1]; such as dichloromethane and acetone): soluble

tetra(nido-carboranylphenyl)porphyrin [Compound 20, reference compound]
dependence of uptake on concentration [2, 6]: increased with increasing concentration, in an almost linear fashion
